For data set [1], the system named is E. coli DH5α (pMD1 or pMD2). Description: effect of ammonium chloride on atrazine degradation, E. coli clones. The data set is classed as cell-based. The text has this:
(§1) Therefore, it was not necessary to use media free of exogenous ammonia in the screening assays.

In data set [2] the test system is Pseudomonas species strain ADP. Description: effect of ammonium chloride on atrazine clearing on solid media, Pseudomonas. The data set is classed as cell-based. Conditions: solid media with 500 ppm atrazine, 2 weeks, 28° C. or 37° C.
Excerpt: as §1

Data set [3] in a line: atrazine-degrading activity of AtzA homologs compared with wild type. Conditions: compared with wild-type AtzA or parent homolog. The protocol:
Serial dilutions of the transformation reaction were plated onto LB plates containing 50 μg/ml ampicillin, the remainder of the transformation was stored in 25% glycerol and frozen at −80° C.
Environ. Microbiol., 61, 1451-1457 (1995), at a final concentration of 500 μg/ml to produce an opaque suspension of small particles in the clear agar. […] Positive colonies that most rapidly formed the largest clear zones were selected initially for further analysis. The (approximately) 40 best colonies were picked, pooled, grown in the presence of 50 μg/ml ampicillin and plasmid prepared from them.
Enzyme Kinetics. […] The reactions were stopped by boiling the reaction tubes at specific times, the addition of 500 μl acetonitrile and rapid freezing at −80° C. Thawed samples were centrifuged at 14,000 rpm for 10 minutes, the supernatants were filtered through a […] filter, and placed into crimp-seal HPLC vials. HPLC analysis was done as described above.

Data set [4] in a line: TERBUTHYLAZINE-degrading activity of AtzA homologs. The data set is classed as biochemical. Conditions: compared with wild-type enzyme. The protocol:
TERBUTHYLAZINE was incorporated in solid LB medium at a final concentration of about 400-500 μg/ml to produce an opaque suspension of sample particles in the clear agar. […] HPLC analysis was performed with a Hewlett Packard HP 1090 Liquid Chromatograph system equipped with a photodiode array detector and interfaced to an HP 79994A Chemstation. TERBUTHYLAZINE and its metabolites were resolved by using an analytical C^18 reverse-phase Nova-Pak HPLC column (4 μm-diameter spherical packing, 150 by 3.9 mm; Waters Chromatography, Milford, Mass.) and an acetonitrile (ACN) gradient, in water, at a flow rate of 1.0 ml min^−1. Linear gradients of 0 to 6 min, 10 to 25% ACN; 6 to 21 min, 25 to 65% ACN; 21 to 23 min, 65 to 100% ACN; and 23 to 25 min, 100% ACN were used. Spectral data of the column eluent were acquired between 200 and 400 nm (12-nm bandwidth per channel) at a sampling frequency of 640 ms. Spectra were referenced against a signal of 500 nm.
Sample 1 is a control sample without enzyme. […] Sample 3 employed the T7 homolog (SEQ ID NO:6) and Sample 4 employed the A7 homolog (SEQ ID NO:5). Results were determined by HPLC as described above. FIG. 8(a) provides the percentage of TERBUTHYLAZINE remaining after a 15 minute exposure to homologs A7, A11, and T7. Samples 1-10 refer to the effect of homolog activity in the presence of 50 uM of: Manganese (1); Mangnesium (2), EDTA (3); cobalt (4); zinc (5); iron (6); copper (7); nickel (8); no metal (9); or no eznyme (10). FIG. 8(b) provides the relative amount of hydroxyterbuthylazine as a measure of TERBUTHYLAZINE degradation for homologs A7 (solid bar), A11 (hatched bar), or T7 (open bar) in the presence or absence of additives 1-10 (supra).

Entries after “also recorded” stand apart in the source; their conditions may differ.

These results are taken from patent US6825001B2, “DNA molecules and protein displaying improved triazine compound degrading ability” (Regents of the University of Minnesota, priority 1997, dated 2004).

With `Cl.N` [ammonium chloride], in data set [1] (E. coli clones vs Pseudomonas strain ADP), the “ammonium chloride tolerance relative to wild type” value was 40-80 fold. For the same molecule, in data set [1] (atzA fragments expressed in E. coli), the “effect of inorganic nitrogen source on atrazine degradation (in words)” value was “unaffected”. Also, the “ammonium chloride concentration at which atrazine degradation was still observed” value in data set [1] (solid media with atrazine) is at most 48 mM. For the same molecule, the “ammonium chloride concentration sufficient to inhibit visible clearing” value in data set [2] was 0.6 to 1.2 mM.

B1: A7: AtzA homolog, gene SEQ ID NO:3, protein SEQ ID NO:5 (protein)
chain: ASMVTLTPLFSFSLLNCTRKASRSVMSASSWLVTCGMTTQLRCRFFDGIISALRRVTHYWRHIMQTLSIQHGTLVTMDQYRRVLGDSWVHVQDGRIVALGVHAESVPPPADRVIDARGKVVLPGFINAHTHVNQILLRGGPSHGRQFYDWLFNVVYPGQKAMRPEDVAVAVRLYCAEAVRSGITTINENADSAIYPGNIEAAMAVYGEVGVRVVYARMFFDRMDGRIQGYVDALKARSPQVELCSIMEGTAVAKDRITALSDQYHGTAGGRISVWPAPATTTAVTVEGMRWAQAFARDRAVMWTLHMAESDHDERIHGMSPAEYMECYGLLDERLQVAHCVYFDRKDVRLLHRHNVKVASQVVSNAYLGSGVAPVPEMVERGMAVGIGTDNGNSNDSVNMIGDMKFMAHIHRAVHRDADVLTPEKILEMATIDGARSLGMDHEIGSIETGKRADLILLDLRHPQTTPHHHLAATIVFQAYGNEVDTVLIDGNVVMENRRLSFLPPERELAFLEEAQSRATAILQRANMVANPAWRSLEMTPLLHPPPLEEIAAILARLGLGGGHDLDGYRIAMNAALPSFARVESLVGEGRLRAPASRRSE
As for B1, the “atrazine degradation activity (in words)” value in data set [3] is “enhanced atrazine degradation activity”. Further, in data set [4], the “TERBUTHYLAZINE degradation activity (in words)” value was “better than the wild-type enzyme; also recorded: enhanced TERBUTHYLAZINE degradation activity”.
